Experimental data taken from patent EP4435060A1, “SILICON PHTHALOCYANINE AND TRIBENZOPHTHALOCYANINE DYES AND THEIR USE IN DIAGNOSIS AND THERAPY” (Albert-Ludwigs-Universität Freiburg, priority 2023, dated 2024).

Columns and labels:
[1] = UV/VIS absorption spectra; type: physicochemical; details: for λmax (UV/VIS spectrum): in H2O, 5 - 16 µM (Figure 13) or 4 - 15 µM (Figure 14); for bathochromic shift compared to the absorption maximum of Li-Cor-A: versus λmax = 680 nm
prostate cancer cells = test: PIT controls on the prostate cancer cell lines of Figure 16E (free dye; conjugate without irradiation); type: cell-based, human; details: equimolar concentrations of free dye, 32 J/cm^2 red light, in words
Method: 2.5*10^5 cells were seeded per well in 35 mm cell culture dishes (Thermo Fischer Scientific) and cultivated for 24 h in the incubator (37°C, 5% CO2). On the next day, cell culture medium was removed and fresh medium containing the appropriate treatment (medium, 10 µg/ml antibody, 10 µg/ml conjugate or the equimolar amount of free dye) was administered to the cells. After incubation (37°C, 5% CO2, 24h), the cells were washed with 1x PBS and irradiated with a red light-emitting diode (LED), which emits light at λmax = 680 nm (L690-66-60, Marubeni, Tokyo, Japan) or a LED, which emits light at (λmax = 780 nm) (L780-66-60-550) at various mean irradiation doses. Power densities were quantified with an optical power meter (PM 100, Thorlabs, Newton, USA). After 24h, cell viability was analyzed using the vital dye erythrosine b (Logos Biosystems, Gyeonggi-do, South Korea) and the Neubauer Counting Chamber. Significance of the data was calculated with the Student's t test (unpaired, parametric with Welch's […]) using the GraphPad Prism 7 software (GraphPad Software Inc., San Diego, USA).

Row | Substance | λalmost max (UV/VIS spectrum) ([1]; 4 - 15 µM in H2O, pathlength = 1 cm) [nm] | λmax (UV/VIS spectrum) ([1]; pathlength = 1 cm) [nm] | absorption maximum λmax in the UV/VIS spectrum [1] [nm] | bathochromic shift compared to the absorption maximum of Li-Cor-A [1] [nm] | viability of irradiated cells incubated with free dye (prostate cancer cells)
1 | 2-(4-Iodophenoxy)-29,31-bis[(3,4,5-tris{[1-(sodium 3-sulfonatopropyl)-1,2,3-triazol-4-yl]methoxy}phenyl)methoxy]silanediyl-29H,31H-silicon tribenzophthalocyanine [compound 31] | 765 | 795 | – | – | –
2 | 2-(4-[4-({[7-oxo-7-(perfluorophenoxy) heptyl]ca rbamoyl} oxy) but-1-yn-1-yl]phenoxy)-29,31-bis[(3,4,5-tris{[1-(sodium 3-sulfonatopropyl)-1,2,3-triazol-4-yl]methoxy}phenyl)methoxy]silanediyl-29H,31H-silicon phthalocyanine [WB692-LB2] | – | – | 692 | 12 | –
3 | 2-({[({4-[(2,5-Dihydro-1H-2,5-dioxopyrrol-1-yl)oxy]-4-oxobut-1-yl}amino)-carbonyloxy]but-1-ynyl}phenoxy)-29,31-bis[(3,4,5-tris{[1-(sodium 3-sulfonatopropyl)-1,2,3-tri-azol-4-yl]methoxy}phenyl)methoxy]silanediyl-29H,31H-silicon tribenzophthalocyanine [WB795-LB1] | – | – | 795 | 115 | –
4 | 2-({[({6-[(2,5-Dihydro-1H-2,5-dioxopyrrol-1-yl)oxy]-6-oxohex-1-yl}amino)-carbonyloxy]but-1-ynyl}phenoxy)-29,31-bis[(3,4,5-tris{[1-(sodium 3-sulfonatopropyl)-1,2,3-tri-azol-4-yl]methoxy}phenyl)methoxy]silanediyl-29H,31H-silicon phthalocyanine [WB692-LB1] | – | – | 692 | 12 | –
5 | 2-[({5-[(1H-2,5-Dioxopyrrol-1-yl)pent-1-yl]amino]carbonylamino)}but-1-yn-yl)phenoxy]-29,31-bis[(3,4,5-tris{[1-(sodium 3-sulfonatopropyl)-1,2,3-triazol-4-yl]methoxy}-phenyl)methoxy]silanediyl-29H,31H-silicon tribenzophthalocyanine [WB795-CB1] | – | – | 795 | 115 | –
6 | 2-[({5-[(1H-2,5-Dioxopyrrol-1-yl)pent-1-yl]amino]carbonylamino)}but-1-yn-yl)phenoxy]-29,31-bis[(3,4,5-tris{[1-(sodium 3-sulfonatopropyl)-1,2,3-triazol-4-yl]methoxy}-phenyl)methoxyjsilanediyl-29H,31H-silicon phthalocyanine [WB692-CB2] | – | – | 692 | 12 | –
7 | 2-[({5-[(1H-2,5-Dioxopyrrol-1-yl)pent-1-yl]amino]carbonyloxy)}but-1-yn-yl)phenoxy]-29,31-bis[(3,4,5-tris{[1-(sodium 3-sulfonatopropyl)-1,2,3-triazol-4-yl]methoxy}-phenyl)methoxyjsilanediyl-29H,31H-silicon phthalocyanine [WB692-CB1] | – | 692 | 692 | 12 | remained alive
